Measurements reported in patent publication US9738932B2, “Biomarkers for cardiovascular side-effects induced by cox-2 inhibitory compounds” (FIRALIS SAS, priority 2005, dated 2017).

System: mRNA expression in cardiovascular tissues
Assay: Affymetrix GeneChip mRNA expression profiling of monkey tissues (iliac vein, pulmonary vein, aorta, carotid artery, heart) after two-week oral-gavage treatment
[1] = iliac vein, group avg, Vioxx without A60055

Protocol: Administration of compounds. A two-week oral-gavage treatment with the Cox-2 specific inhibitor COX189 (Lumiracoxib®, Novartis) in comparison with rofecoxib (Vioxx®, Merck), and celecoxib (Celebrex®, Pharmacia/Pfizer), and with the nonselective NSAID, diclofenac (Voltaren®, Novartis) was performed. […] The test items were administered daily at doses of 100 mg/kg/day, except Vioxx® which was administered at 50 mg/kg/day.
Gene expression profiles. After a period of time (e.g., four weeks) of compound/drug administration, the treated animals are necropsied. 120 tissues are dissected and rapidly snap-frozen for genomics analysis. Organ samples are isolated for histopathological examinations and for gene expression localizations, such as by in situ hybridization.
Gene expression profiles have been generated using the Affymetrix microarray technology. (i) RNA extraction and purification: Briefly, total RNA was obtained by acid guanidinium thiocyanate-phenol-chloroform extraction (Trizol®, Invitrogen Life Technologies, San Diego, Calif.) from each frozen tissue section and the total RNA was then purified on an affinity resin (Rneasy®, Qiagen) according to the manufacturer's instructions. Total RNA was quantified by the absorbance at λ=260 nm (A260 nm) and the purity was estimated by the ratio A260 nm/A280 nm. Integrity of the RNA molecules was confirmed by non-denaturing agarose gel electrophoresis. RNA was stored at −80° C. until analysis. […] (ii) GeneChip® experiment: All GeneChip® experiments were conducted in the Genomics Factory EU following recommendations by the manufacturer of the GeneChip® system (Affymetrix, Expression Analysis Technical Manual (Affymetrix, Santa Clara, Calif., 2005). Human U133A genome arrays were used for transcript expression analysis. Double stranded cDNA was synthesized with a starting amount of approximately 5 μg full-length total RNA using the Superscript Choice System (Invitrogen Life Technologies) in the presence of a T7-(dT) 24 DNA oligonucleotide primer. Following synthesis, the cDNA was purified by phenol/chloroform/isoamyl alcohol extraction and ethanol precipitation. The purified cDNA was then transcribed in vitro using the BioArray® High Yield RNA Transcript Labeling Kit (ENZO) in the presence of biotinylated ribonucleotides form biotin labelled cRNA. The labelled cRNA was then purified on an affinity resin (Rneasy, Qiagen), quantified and fragmented. An amount of approximately 10 μg labelled cRNA was hybridized for approximately 16 hours at 45° C. to an expression probe array. The array was then washed and stained twice with streptavidin-phycoerythrin (Molecular Probes) using the GeneChip Fluidics Workstation 400 (Affymetrix). The array was then scanned twice using a confocal laser scanner (GeneArray Scanner®, Agilent) resulting in one scanned image. This resulting “.dat-file” was processed using the MASS program (Affymetrix) into a “.cel-file”. The “.cel file” was then transferred to tan Affymetrix GeneChip Laboratory Information Management System (LIMS) database, which is connected to a UNIX Sun Solaris server through a network filing system that allows for the average intensities for all probes cells (CEL file) to be downloaded into an Oracle database (NPGN). Raw data was converted to expression levels using a “target intensity” of 100. […] The data were checked for quality and loaded in the GeneSpring® software versions 5.0 (Silicon Genetics, Calif., US) for statistical analysis.
Quality control analysis of transcriptome data: The following quality measures were analysed for each sample: Scaling factor, background, percent present calls, AFFX-GAPDH 3′: AFFX-GAPDH 5′-ratio, AFFX-GAPDH 3′ variance, AFFX-Beta-actin 3′: AFFX-Beta-actin 5′-ratio.

CS(=O)(=O)c1ccc(C2=C(c3ccccc3)C(=O)OC2)cc1 [Vioxx®, rofecoxib]
3.8 fold: IFI27 (202411_at) avg fold change vs control [1]
1.6 fold: IRF7 (208436_s_at) avg fold change vs control [1]
significantly increased: expression of Toll like receptor 2 and CD14 (several tissues)
1.1 fold: HHL (203020_at) avg fold change vs control [1] | HLA-B (209140_x_at) avg fold change vs control [1] | HLA-DMA (217478_s_at) avg fold change vs control [1] | HLA-DMB (203932_at) avg fold change vs control [1] | HLA-DRB3 (209312_x_at) avg fold change vs control [1] | HLA-F (204806_x_at) avg fold change vs control [1] | IFITM2 (201315_x_at) avg fold change vs control [1] | IL1A (208200_at) avg fold change vs control [1] | IL27RA (205926_at) avg fold change vs control [1] | INDO (210029_at) avg fold change vs control [1] | LY96 (206584_at) avg fold change vs control [1] | TNFSF6 (210865_at) avg fold change vs control [1] | XCL1 (214567_s_at) avg fold change vs control [1]
0.7 fold: PRC1 (218009_s_at) avg fold change vs control [1]
0.8 fold: ICAM1 (202638_s_at) avg fold change vs control [1] | IRF1 (202531_at) avg fold change vs control [1] | LILRB3 (210225_x_at) avg fold change vs control [1] | PRG1 (201858_s_at) avg fold change vs control [1] | PRG1 (201859_at) avg fold change vs control [1] | SOCS3 (206360_s_at) avg fold change vs control [1] | TNFAIP3 (202643_s_at) avg fold change vs control [1] | VCAM1 (203868_s_at) avg fold change vs control [1]
20 fold: increase of CXCL10 mRNA expression in pulmonary vein (monkey #A60055, 50 mg/kg/day oral gavage, two weeks, pulmonary vein)
2.5 fold: IFI44 (214453_s_at) avg fold change vs control [1]
1.4 fold: HLA-B (211911_x_at) avg fold change vs control [1] | HLA-C (214459_x_at) avg fold change vs control [1] | ICSBP1 (204057_at) avg fold change vs control [1] | IFITM3 (212203_x_at) avg fold change vs control [1] | IL2RG (204116_at) avg fold change vs control [1] | cig5 (213797_at) avg fold change vs control [1]
strongly induced: expression of CXCL10 and PD-ECGF (mainly in iliac and pulmonary veins, monkey #A60055)
1.7 fold: ISGF3G (203882_at) avg fold change vs control [1] | LRMP (204674_at) avg fold change vs control [1] | STAT1 (209969_s_at) avg fold change vs control [1]
upregulated: expression of cPLA2 (most of the cardiovascular tissues)
150 fold: increase of MCP-1 mRNA expression in pulmonary vein (monkey A60055, 50 mg/kg/day oral gavage, two weeks, pulmonary vein)
0.6 fold: ITGB2 (202803_s_at) avg fold change vs control [1]
1.2 fold: HLA-A (211529_x_at) avg fold change vs control [1] | HLA-B (208729_x_at) avg fold change vs control [1] | HLA-DQB2 (212998_x_at) avg fold change vs control [1] | HLA-DRB1 (215193_x_at) avg fold change vs control [1] | HLA-DRB6 (217362_x_at) avg fold change vs control [1] | HLA-E (217456_x_at) avg fold change vs control [1] | HLA-F (221875_x_at) avg fold change vs control [1] | INPP5D (203332_s_at) avg fold change vs control [1] | KLKB1 (206541_at) avg fold change vs control [1] | PLA2G4C (209785_s_at) avg fold change vs control [1] | PLSCR1 (202446_s_at) avg fold change vs control [1] | TNFAIP3 (202644_s_at) avg fold change vs control [1] | TNFSF10 (202687_s_at) avg fold change vs control [1]
1.0 fold: HFE (211866_x_at) avg fold change vs control [1] | HLA-DQA1 (212671_s_at) avg fold change vs control [1] | HLA-DQB1 (211654_x_at) avg fold change vs control [1] | HLA-DQB1 (211656_x_at) avg fold change vs control [1] | HLA-DRA (208894_at) avg fold change vs control [1] | HLA-DRA (210982_s_at) avg fold change vs control [1] | IFI30 (201422_at) avg fold change vs control [1] | LYN (210754_s_at) avg fold change vs control [1] | MAF (209348_s_at) avg fold change vs control [1] | PLCL2 (216217_at) avg fold change vs control [1] | PTPN22 (206060_s_at) avg fold change vs control [1] | TRGC2 (216920_s_at) avg fold change vs control [1] | XLKD1 (219059_s_at) avg fold change vs control [1]
0.5 fold: IGFBP4 (201508_at) avg fold change vs control [1] | LAIR1 (208071_s_at) avg fold change vs control [1] | LILRB1 (207857_at) avg fold change vs control [1] | PCOLCE (202465_at) avg fold change vs control [1]
1.3 fold: HLA-A (211528_x_at) avg fold change vs control [1] | HLA-A (215313_x_at) avg fold change vs control [1] | HLA-C (208812_x_at) avg fold change vs control [1] | HLA-C (216526_x_at) avg fold change vs control [1] | HLA-E (200905_x_at) avg fold change vs control [1] | IFIT2 (217502_at) avg fold change vs control [1] | JAK1 (214377_s_at) avg fold change vs control [1] | LILRB1 (211100_x_at) avg fold change vs control [1] | PTPRC (207238_s_at) avg fold change vs control [1] | STAT1 (AFFX-HUMISGF3A/M97935_5_at) avg fold change vs control [1] | STAT1 (AFFX-HUMISGF3A/M97935_MA_at) avg fold change vs control [1] | TRGC2 (211144_x_at) avg fold change vs control [1]
0.9 fold: HLA-DQB1 (209823_x_at) avg fold change vs control [1] | ICAM1 (215485_s_at) avg fold change vs control [1] | IFIT4 (204747_at) avg fold change vs control [1] | IGF1 (209541_at) avg fold change vs control [1] | LCP2 (205270_s_at) avg fold change vs control [1] | LILRB3 (208594_x_at) avg fold change vs control [1] | TAPBP (208829_at) avg fold change vs control [1] | TCTEL1 (201999_s_at) avg fold change vs control [1] | TLR1 (210176_at) avg fold change vs control [1] | TLR2 (204924_at) avg fold change vs control [1] | TNFSF10 (202688_at) avg fold change vs control [1]
1.5 fold: IFIT1 (203153_at) avg fold change vs control [1] | LCK (204890_s_at) avg fold change vs control [1] | LY86 (205859_at) avg fold change vs control [1] | STAT1 (AFFX-HUMISGF3A/M97935_MB_at) avg fold change vs control [1] | XCL1 (206366_x_at) avg fold change vs control [1]
1.8 fold: HLA-A (211530_x_at) avg fold change vs control [1]
